Tests used:
[1] = tested on: cytokines; settings: experimental T. vaginalis prostatic infection models; inhibition of ROS production (Kim S-S., 2016); cited from earlier work
[2] = tested on: cell proliferation / apoptosis; settings: Ren, 2015; cited from earlier work
[3] = tested on: VEGF; settings: Ren, 2015; cited from earlier work
[4] = tested on: prostatic ROSs; settings: Ren, 2015; cited from earlier work
[5] = tested on: HIF-1α; settings: Ren, 2015; cited from earlier work
[6] = tested on: mitochondrial oxidative phosphorylation; assay: Effect on mitochondrial oxidative phosphorylation; type: biochemical; settings: preliminarily demonstrated
[7] = in rats; cited from earlier work
[8] = marketed as SULFARLEM; cited from earlier work
[9] = tested on: TNFalpha; assay: RT-qPCR of TNFalpha in Pb-PRL mouse prostate; type: in vivo; settings: Pb-PRL mice, 60 mg/kg/day, 28 days, vs control; dorsal, lateral, ventral prostate; FIGS. 9A-9C
Protocol: (§1) ATT (anethole trithione) was administered to probasin-prolactin (Pb-PRL) mice. This is a transgenic mouse model in which prolactin is specifically overexpressed by the epithelial cells of the prostate, leading to development of benign hyperplasia having characteristics in common with the human pathology: tissue hypertrophy, hyperplasia of the epithelial and stromal cells, and intra-prostatic inflammation (Kindblom et al., 2003; Bernichtein et al., 2015a; Bernichtein et al., 2015b).
(§2) The control group (excipient) was treated with the oil alone.
(§3) The animals were sacrificed at the end of the 28 days of treatment (cervical dislocation), and the prostates were harvested and analyzed by the standard procedures previously described in the literature (Bernichtein et al. Prostate 2015, Bernichtein et al. PLoS. ONE 2015, Bernichtein et al. Cancer Res 2017).
(§4) The inflammation was measured using two approaches: • CD45 immunolabeling (IHC): making it possible to quantify the number and size of the inflammation sites (image analysis using Calopix software). • RT-qPCR of selected cytokines: IL6 and TNFa.

[10] = tested on: epithelial proliferation (Ki-67); assay: Epithelial proliferation by IHC Ki-67 in Pb-PRL mouse prostate; type: in vivo; settings: Pb-PRL mice, 60 mg/kg/day by gavage, 28 days, vs control group; half-prostate; FIG. 2
Protocol: as §1, §2, §3
Cell proliferation was measured by IHC Ki-67, which makes it possible to calculate the epithelium proliferation index (manual counting or Calopix software).

[11] = tested on: CD45; assay: CD45 immunolabeling (IHC) of inflammation sites in Pb-PRL mouse prostate; type: in vivo; settings: Pb-PRL mice, 60 mg/kg/day, 28 days, vs control; half-prostate; FIG. 7
Protocol: as §1, §2, §3, §4

[12] = tested on: Pb-PRL mice; assay: Scar fibrosis in Pb-PRL mouse prostate; type: in vivo; settings: 60 mg/kg/day, 28 days, vs control
Protocol: ATT (anethole trithione) was administered to probasin-prolactin (Pb-PRL) mice. This is a transgenic mouse model in which prolactin is specifically overexpressed by the epithelial cells of the prostate, leading to development of benign hyperplasia having characteristics in common with the human pathology: tissue hypertrophy, hyperplasia of the epithelial and stromal cells, and intra-prostatic inflammation (Kindblom et al., 2003; Bernichtein et al., 2015a; Bernichtein et al., 2015b). […] The control group (excipient) was treated with the oil alone. […] The animals were sacrificed at the end of the 28 days of treatment (cervical dislocation), and the prostates were harvested and analyzed by the standard procedures previously described in the literature (Bernichtein et al. Prostate 2015, Bernichtein et al. PLoS. ONE 2015, Bernichtein et al. Cancer Res 2017).

[13] = tested on: PSP94; assay: RT-qPCR of PSP94 in Pb-PRL mouse prostate; type: in vivo; settings: Pb-PRL mice, 60 mg/kg/day, 28 days, vs control; dorsal, lateral, ventral prostate; FIGS. 6A-6C
Protocol: as §1, §2, §3
(§5) This study was performed by RT-qPCR analysis of the expression of elements associated with androgenic signaling and of conventional targets of the androgen receptor in the prostate (AR, PSP 94, Srd5A1, Srd5A2) (Bernichtein et al. Prostate 2015, Sackmann Sala et al. J Pathol 2017).

[14] = tested on: SRD5A2 (5-alpha-reductase); assay: RT-qPCR of SRD5A2 in Pb-PRL mouse prostate; type: in vivo; settings: Pb-PRL mice, 60 mg/kg/day, 28 days, vs control; dorsal, lateral, ventral prostate; FIGS. 5A-5C
Protocol: as §1, §2, §3, §5

[15] = tested on: HIF1 alpha; assay: RT-qPCR of HIF1 alpha (hypoxia) in Pb-PRL mouse prostate; type: in vivo; settings: Pb-PRL mice, 60 mg/kg/day, 28 days, vs control; in one or more prostate lobes; FIGS. 13A-13C
Protocol: as §1, §2, §3
Hypoxia was observed by analysis of HIF1 alpha measured by RT-qPCR at the dorsal, lateral and ventral prostate. The results are presented in FIGS. 13A, 13B and […], respectively.

[16] = tested on: IQ site of the I complex of the mitochondrial respiratory chain; assay: Action on mitochondrial ROS production; type: biochemical; settings: mostly at the IQ site of the I complex of the mitochondrial respiratory chain; unlike conventional antioxidants
[17] = tested on: PHD1 dioxygenase; assay: RT-qPCR of PHD1 dioxygenase in Pb-PRL mouse prostate; type: in vivo; settings: Pb-PRL mice, 60 mg/kg/day, 28 days, vs control; FIGS. 11A-11C
Protocol: as §1, §2, §3
(§6) Oxidative stress will be measured using two approaches: • oxidation/carbonylation of the proteins by blot (Oxyblot™, Merck). • PHD1 and PHD3 dioxygenase expression (RT-qPCR).

[18] = tested on: SRD5A1 (5-alpha-reductase); assay: RT-qPCR of SRD5A1 in Pb-PRL mouse prostate; type: in vivo; settings: Pb-PRL mice, 60 mg/kg/day, 28 days, vs control; dorsal, lateral, ventral prostate; FIGS. 4A-4C
Protocol: as §1, §2, §3, §5

[19] = tested on: PHD3 dioxygenase; assay: RT-qPCR of PHD3 dioxygenase in Pb-PRL mouse prostate; type: in vivo; settings: Pb-PRL mice, 60 mg/kg/day, 28 days, vs control; FIGS. 12A-12C
Protocol: as §1, §2, §3, §6

[20] = tested on: oxidation/carbonylation of the proteins; assay: Oxidation/carbonylation of the proteins by blot (Oxyblot) in Pb-PRL mouse prostate; type: in vivo; settings: Pb-PRL mice, 60 mg/kg/day, 28 days, vs control; all lobes; FIGS. 10A-10C
Protocol: as §1, §2, §3, §6

[21] = tested on: IL6; assay: RT-qPCR of IL6 in Pb-PRL mouse prostate; type: in vivo; settings: Pb-PRL mice, 60 mg/kg/day, 28 days, vs control; dorsal, lateral, ventral prostate; FIGS. 8A-8C
Protocol: as §1, §2, §3, §4

## c1ccc2c(c1)[I+]c1ccccc1-2 [DPI, diphenylene iodonium]
[1]
  overexpression of cytokines: prevents overexpression

## CC1=NN(c2ccccc2)C(=O)C1 [edaravone]
[2]
  apoptosis: promotes
  cell proliferation: reduces
[3]
  levels of VEGF: decreases
[4]
  levels of prostatic ROSs: decreases
[5]
  levels of HIF-1α: decreases

## COc1ccc(-c2cc(=S)ss2)cc1 [ATT, 5-(4-methoxyphenyl)-3H-1,2-dithiole-3-thione]
[6]
  effect on mitochondrial oxidative phosphorylation: does not affect
[7]
  half-life: 24 min
[8]
  side effects associated to long-term use: no side effect has been reported
[9]
  expression of TNFalpha: decrease
[10]
  epithelial proliferation of the prostate (Ki-67 immunohistochemistry): statistically significant decrease
[11]
  number of positive leukocyte cell sites for the CD45 marker: statistically significant decrease
[12]
  scar fibrosis: statistically significant increase
[13]
  expression of PSP94 messenger RNAs: statistically significant decrease
[14]
  expression of 5-alpha-reductase 2 (SRD5A2) messenger RNAs: statistically significant decrease
[15]
  expression of the messenger RNAs of the HIF1 alpha hypoxia marker: statistically significant increase
[16]
  action on mitochondrial ROS production: acts directly and selectively
[17]
  expression of the messenger RNAs of PHD1 dioxygenase: statistically significant decrease
[18]
  expression of 5-alpha-reductase 1 (SRD5A1) messenger RNAs: statistically significant decrease
[19]
  expression of the messenger RNAs of PHD3 dioxygenase: statistically significant decrease
[20]
  carbonylation of the proteins (Oxyblot): statistically significant decrease
[21]
  expression of IL6: decrease
